Tests used:
[1] = target: T1, Recombinant NAMPT protein (Homo sapiens, UniProt P43490); experiment: NAMPT enzyme inhibition assay (BPS Bioscience NAMPT Inhibitor Screening Assay Kit); format: biochemical; conditions: 30 min pre-incubation, 2 h at 30° C., fluorescence
T1 construct: purchased BPS bioscience #7176-1
Procedure: Recombinant NAMPT protein was added to each well of a black 96-well plate, and dilution buffer was added to a blank well instead of NAMPT protein. A 5× concentrated compound solution was added and pre-incubated at room temperature (approximately 22° C.) for 30 minutes before the start of the reaction so that the compound and protein might bind before the enzyme reaction. At this time, the concentration of NAMPT protein was adjusted and used according to the enzyme activity of each protein lot within the final concentration range of 4-10 ng/μl, and the test compound was serially diluted at a ratio of 1:3 from 1000 nM to 1 nM, and experiments were conducted with n=2 for about seven concentrations. […] The NAMPT enzyme activity (%) was calculated by subtracting the measurement value of the blank well without NAMPT protein from the measurement value of all wells, and then taking the measurement value of the control well without the compound as 100%.

NCI-N87 (gastric cancer) = experiment: Tumor cytotoxicity assay (MTT), NCI-N87; format: cell-based; conditions: Homo sapiens, NCI-N87, 72 hours
Procedure: (§1) First, the compounds were prepared in 100% dimethyl sulfoxide (DMSO) at concentrations of 0.02 μM to 200 μM, and then diluted in the culture medium so that the final concentration of DMSO might reach 0.5%, and treated with the drugs. The final concentration range of the compounds was 0.1 nM to 1000 nM. After that, they were further incubated for 72 hours under conditions of 37° C. and CO2 5%. […] The cell viability (%) was relatively determined by subtracting the reference 650 nm optical density (O.D.) from the 570 nm O.D., and the 0.5% DMSO-treated control was set as 100% as the standard.

HCT-116 cell lines = experiment: Cellular NAD measurement assay (NAD/NADH-Glo); format: cell-based; conditions: Homo sapiens; HCT-116, 24 hours treatment, intracellular NAD+/NADH level
Procedure: With regard to HCT-116 cell lines, the decrease in intracellular NAD+ and NADH levels due to the inhibition of NAMPT enzyme activity by compounds was evaluated using NAD/NADH-Glo™ Assay (Promega, G9072) from Promega. The cells were incubated using DMEM (Gibco, 11995-065) medium containing 10% FBS. The HCT-116 cells were incubated for 24 hours after being distributed at a density of 2,500 cells per well in a 96-well plate, and were treated with the drugs using serum-free DMEM. First, the compounds were dissolved in 100% dimethyl sulfoxide (DMSO), and then diluted in the culture medium so that the final concentration of DMSO might reach 0.5%, and treated with the drugs. The final concentration range of the compounds was 0.1 nM to 100 nM. After that, they were further incubated for 24 hours under conditions of 37° C. and CO2 5%. To conduct the NAD/NADH-Glo™ Assay, the culture medium of drug-treated cells was removed, 50 μL of DPBS was treated per well, and left at room temperature for five minutes. The required amount of NAD/NADH-Glo™ Detection Reagent (Reconstituted Luciferin Detection Reagent 1 mL, Reductase 5 μL, Reductase Substrate 5 μL, NAD Cycling Enzyme 5 μL, NAD Cycling Substrate 25 μL) was prepared according to the manufacturer's manual and treated in an amount of 50 μL per well. After incubating for two minutes at 400 rpm in a plate shaker for cell lysis, the cells were incubated for 30 minutes at room temperature, and luminescence was measured. NAD+/NADH levels were calculated by subtracting the measurement value of the blank well without cells from the measurement value of all wells and taking the 0.5% DMSO-treated control as 100%.

[2] = test system: HCT-116 (colorectal cancer); experiment: Tumor cytotoxicity assay (MTT), HCT-116; format: cell-based; conditions: Homo sapiens, HCT-116, 72 hours
Procedure: as §1

T1 sequence (P43490 whole entry): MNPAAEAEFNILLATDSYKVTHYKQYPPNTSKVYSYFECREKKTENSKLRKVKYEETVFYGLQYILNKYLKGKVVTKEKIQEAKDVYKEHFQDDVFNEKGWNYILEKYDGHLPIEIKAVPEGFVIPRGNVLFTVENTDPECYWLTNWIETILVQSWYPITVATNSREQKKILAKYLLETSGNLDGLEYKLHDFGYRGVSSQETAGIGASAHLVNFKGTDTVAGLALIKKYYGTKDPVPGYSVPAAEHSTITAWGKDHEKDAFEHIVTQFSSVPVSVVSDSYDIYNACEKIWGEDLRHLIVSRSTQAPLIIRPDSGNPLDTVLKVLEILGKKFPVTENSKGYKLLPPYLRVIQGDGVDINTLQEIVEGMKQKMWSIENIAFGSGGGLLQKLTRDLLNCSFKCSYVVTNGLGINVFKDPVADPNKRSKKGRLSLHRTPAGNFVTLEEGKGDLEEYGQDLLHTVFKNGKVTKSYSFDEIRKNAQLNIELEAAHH

IC50 [1] [nM] | IC50 (HCT-116 cell lines) [nM] | SMILES | CC50 (NCI-N87 (gastric cancer)) [nM] | CC50 [2] [nM]
< 500 | 10 to 1000 | O=C(NCCc1cccnc1)Nc1ccc(-c2ccncc2)c(C#Cc2ccc(F)cc2)c1 [Compound 1, 1-(3-((4-fluorophenyl)ethynyl)-4-(pyridin-4-yl)phenyl)-3-(2-(pyridin-3-yl)ethyl)urea] | 30 to 100 | 30 to 100
< 500 | ≤ 10 | O=C(NCc1ccn2ccnc2c1)Nc1ccc(-c2ccncc2)c(C#Cc2ccc(F)cc2)c1 [Compound 4, 1-(3-((4-fluorophenyl)ethynyl)-4-(pyridin-4-yl)phenyl)-3-(imidazo[1,2-a]pyridin-7-ylmethyl)urea] | < 30 | < 30
< 500 |  | O=C(NCc1cc2cnccc2[nH]1)Nc1ccc(-c2ccncc2)c(C#Cc2ccc(F)cc2)c1 [Compound 6, 1-((1H-pyrrolo[3,2-c]pyridin-2-yl)methyl)-3-(3-((4-fluorophenyl)ethynyl)-4-(pyridin-4-yl)phenyl)urea] |  | 30 to 100
< 500 |  | O=C(NCCc1cccnc1)Nc1ccc(-c2ccncc2)c(C#Cc2ccc(C(=O)NCCN3CCCCC3)cc2)c1 [Compound 7, N-(2-(piperidin-1-yl)ethyl)-4-((5-(3-(2-(pyridin-3-yl)ethyl)ureido)-2-(pyridin-4-yl)phenyl)ethynyl)benzamide] |  | < 30
< 500 | ≤ 10 | O=C(NCCc1cccnc1)Nc1ccc(-c2ccc(N3CCNCC3)cc2)c(C#Cc2ccc(F)cc2)c1 [Compound 13, 1-(2-((4-fluorophenyl)ethynyl)-4′-(piperazin-1-yl)-[1,1′-biphenyl]-4-yl)-3-(2-(pyridin-3-yl)ethyl)urea] | < 30 | < 30
< 500 | ≤ 10 | Cc1nc2cc(-c3ccc(NC(=O)NCCc4cccnc4)cc3C#Cc3ccc(F)cc3)ccc2c(=O)[nH]1 [Compound 14] | < 30 | < 30
< 500 |  | O=C(NCCc1cccnc1)Nc1ccc(-c2ccncc2)c(C#Cc2ccc(C(=O)NCCN3CCC4(CCNC4)CC3)cc2)c1 [Compound 35] | 30 to 100 | 30 to 100
< 500 |  | NC1CCCN(CCNC(=O)c2ccc(C#Cc3cc(NC(=O)NCCc4cccnc4)ccc3-c3ccncc3)cc2)C1 (stereo not shown) [Compound 40] | 30 to 100 | 30 to 100
< 500 | 10 to 1000 | O=C(NCCc1cccnc1)Nc1ccc(-c2ccncc2)c(C#Cc2ccc(C(=O)NCCN3CCNCC3)cc2)c1 [Compound 47] | 30 to 100 | < 30
< 500 |  | NC1CCN(C(=O)c2ccc(C#Cc3cc(NC(=O)NCCc4cccnc4)ccc3-c3ccncc3)cc2)CC1 [Compound 65, 1-(3-((4-(4-aminopiperidin-1-carbonyl)phenyl)ethynyl)-4-(pyridin-4-yl)phenyl)-3-(2-(pyridin-3-yl)ethyl)urea] |  | 30 to 100
< 500 |  | O=C(NCCc1cccnc1)Nc1ccc(-c2ccncc2)c(C#Cc2ccc(C(=O)NC3CCNCC3)cc2)c1 [Compound 66, N-(piperidin-4-yl)-4-((5-(3-(2-(pyridin-3-yl)ethyl)ureido)-2-(pyridin-4-yl)phenyl)ethynyl)benzamide] | < 30 | 30 to 100
< 500 |  | O=C(NCCc1cccnc1)Nc1ccc(CC(=O)N2CCCCC2)c(C#Cc2ccc(F)cc2)c1 [Compound 74] | < 30 | 
< 500 |  | CC(C(=O)NC1CCCCC1)c1ccc(NC(=O)NCCc2cccnc2)cc1C#Cc1ccc(C(=O)NCCN2CCCCC2)cc1 (stereo not shown) [Compound 89] |  | 30 to 100
< 500 |  | CC(=O)Nc1ccc(C#Cc2cc(NC(=O)NCCc3cccnc3)ccc2-c2ccncc2)cc1 [Compound 126, N-(4-((5-(3-(2-(pyridin-3-yl)ethyl)ureido)-2-(pyridin-4-yl)phenyl)ethynyl)phenyl)acetamide] | < 30 | 
< 500 | ≤ 10 | Cn1ccc(CS(=O)(=O)c2ccc(NC(=O)NCc3ccn4ccnc4c3)cc2C#Cc2ccc(F)cc2)n1 [Compound 183, 1-(3-((4-fluorophenyl)ethynyl)-4-(((1-methyl-1H-pyrazol-3-yl)methyl)sulfonyl)phenyl)-3-(imidazo[1,2-a]pyridin-7-ylmethyl)urea] |  | < 30
< 500 | ≤ 10 | Cc1nc2cc(-c3ccc(NC(=O)NCCc4cccnc4)cc3C#Cc3ccc(F)cc3)ccc2c(=O)n1CCN [Compound 186] | 30 to 100 | < 30
< 500 | ≤ 10 | O=C(NCc1ccn2ccnc2c1)Nc1ccc(-c2ccncc2)c(C#Cc2ccc(C3CCNCC3)cc2)c1 [Compound 187] | < 30 | < 30
< 500 |  | Cc1nc2cc(-c3ccc(NC(=O)NCc4ccn5ccnc5c4)cc3C#Cc3ccc(F)cc3)ccc2c(=O)n1CCN [Compound 188] | < 30 | < 30
